According to patent publication US20240294543A1, “CYCLOHEPTA-THIENO-DIAZEPINE DERIVATIVES AS GABA A GAMMA1 PAM” (Hoffmann-La Roche Inc., priority 2021, published 2024):

Biological target: h-GABA-A α2β2γ1 (Homo sapiens (Human), UniProt P47869+Q8N1C3)
Experiment: Two-electrode voltage clamp electrophysiology in Xenopus oocytes expressing GABAA receptors
Format: cell-based
Details: for Efficacy (GABA) %: % modulation of GABA EC20 = 100*(Fold increase−1), compound at about 30-fold its Ki α2β2γ1; for Fold increase h-GABA-A α2β2γ1 oocyte @ 30-fold Ki: Xenopus oocytes, GABA EC20, compound at about 30-fold its Ki α2β2γ1
Procedure: Xenopus Oocytes Preparation Xenopus laevis oocytes at maturation stages V-VI were used for the expression of cloned mRNA encoding GABAA receptor subunits. Oocytes ready for RNA micro-injection were bought from Ecocyte, Castrop-Rauxel, Germany and stored in modified Barth's medium (composition in mM: NaCl 88, KCl 1, NaHCO3 2.4, HEPES 10, MgSO4 0.82, CaNO3 0.33, CaCl2 0.33, pH=7.5) at 20° C. until the experiment.
Oocytes were plated in 96-well plates for microinjection using the Roboinject automated instrument (MultiChannelSystems, Reutlingen, Germany). Approximately 50 nL of an aqueous solution containing the RNA transcripts for the subunits of the desired GABAA receptor subtype was injected into each oocyte. […] Oocytes were kept in modified Barth's medium (composition in mM: NaCl 88, KCl 1, NaHCO3 […], HEPES 10, MgSO4 0.82, CaNO3 0.33, CaCl2 0.33, pH=7.5) at 20° C. until the experiment.
Electrophysiological experiments were performed using the Roboocyte instrument (MultiChannelSystems, Reutlingen, Germany) on days 3 to 5 after the micro-injection of mRNA. During the experiment the oocytes were constantly superfused by a solution containing (in mM) NaCl 90, KCl 1, HEPES 5, MgCl2 1, CaCl2 1 (pH 7.4). Oocytes were impaled by two glass microelectrodes (resistance: 0.5-0.8 MQ) which were filled with a solution containing KCl 1M+K-acetate 1.5 M and voltage-clamped to −80 mV. The recordings were performed at room temperature using the Roboocyte two-electrode voltage clamp system (Multichannelsystem). After an initial equilibration period of 1.5 min GABA was added for 1.5 min at a concentration evoking approximately 20% of a maximal current response (EC20). After another rest interval of 2.5 min GABA was again added evoking a response of similar amplitude and shape. […] Current traces were recorded at a digitization rate of 10 Hz during and shortly before and after the GABA application.
Each compound and concentration was tested on at least 3 oocytes. Different oocytes were used for different compound concentrations.
For the analysis, the digitized current traces of the first and second GABA response were superimposed and, if necessary, rescaled to equal maximal amplitudes. The ratio between the two responses during the time interval of test compound application was calculated point by point. The extremum of the resulting “ratio trace” was taken as the efficacy (“Fold increase”) of the compound expressed as “% modulation of GABA EC20” (100*(Fold increase−1)).

Row | SMILES | Efficacy (GABA) % | Fold increase h-GABA-A α2β2γ1 oocyte @ 30-fold Ki
1 | Cc1nnc2n1-c1sc3c(c1C(c1c(F)cccc1F)=N[C@H]2C)CC[C@@H](O)CC3 [Example 27, (7S,14R)-9-(2,6-difluorophenyl)-3,7-dimethyl-18-thia-2,4,5,8-tetrazatetracyclo[8.8.0.02,6.011,17]octadeca-1(10),3,5,8,11(17)-pentaen-14-ol] | 77% | 1.77
2 | Cc1nc2n(n1)-c1sc3c(c1C(c1c(F)cccc1F)=N[C@H]2C)CCCCC3 [Example 20, (7S)-9-(2,6-difluorophenyl)-4,7-dimethyl-18-thia-2,3,5,8-tetrazatetracyclo[8.8.0.02,6.011,17]octadeca-1(10),3,5,8,11(17)-pentaene] | 76% | 1.76
3 | C[C@@H]1N=C(c2c(F)cccc2F)c2c(sc3c2COCCC3)-n2cc(C(=O)NCC(C)(C)O)nc21 [Example 67, (7S)-9-(2,6-difluorophenyl)-N-(2-hydroxy-2-methyl-propyl)-7-methyl-13-oxa-18-thia-2,5,8-triazatetracyclo[8.8.0.02,6.011,17]octadeca-1(10),3,5,8,11(17)-pentaene-4-carboxamide] | 164% | 2.64
4 | Cc1nnc2n1-c1sc3c(c1C(c1c(F)cccc1F)=N[C@H]2C)CC[C@@H](F)CO3 [Example 56, (7S,14R)-9-(2,6-difluorophenyl)-14-fluoro-3,7-dimethyl-16-oxa-18-thia-2,4,5,8-tetrazatetracyclo[8.8.0.02,6.011,17]octadeca-1(10),3,5,8,11(17)-pentaene] | 147% | 2.47
5 | Cc1nnc2n1-c1sc3c(c1C(c1c(F)cccc1F)=N[C@H]2C)CCCC[C@H]3F (single isomer, unassigned) [Example 11] | 88% | 1.88
6 | Cc1nc2n(n1)-c1sc3c(c1C(c1c(F)cccc1F)=N[C@H]2C)COCCO3 [Example 28, (7S)-9-(2,6-difluorophenyl)-4,7-dimethyl-13,16-dioxa-18-thia-2,3,5,8-tetrazatetracyclo[8.8.0.02,6.011,17]octadeca-1(10),3,5,8,11(17)-pentaene] | 40% | 1.40
7 | C[C@@H]1N=C(c2c(F)cccc2F)c2c(sc3c2COCCC3)-n2cc(C(=O)NCCO)nc21 [Example 66, (7S)-9-(2,6-difluorophenyl)-N-(2-hydroxyethyl)-7-methyl-13-oxa-18-thia-2,5,8-triazatetracyclo[8.8.0.02,6.011,17]octadeca-1(10),3,5,8,11(17)-pentaene-4-carboxamide] | 153% | 2.53
8 | C[C@@H]1N=C(c2c(F)cccc2F)c2c(sc3c2COCCC3)-n2nc(C(=O)NCC3(O)CC3)nc21 [Example 62, (7S)-9-(2,6-difluorophenyl)-N-[(1-hydroxycyclopropyl)methyl]-7-methyl-13-oxa-18-thia-2,3,5,8-tetrazatetracyclo[8.8.0.02,6.011,17]octadeca-1(10),3,5,8,11(17)-pentaene-4-carboxamide] | 179% | 2.79
9 | C[C@@H]1N=C(c2c(F)cccc2F)c2c(sc3c2COCCC3)-n2nc(C(=O)NC[C@@](C)(O)C(F)(F)F)nc21 [Example 70, (7S)-9-(2,6-difluorophenyl)-7-methyl-N-[(2R)-3,3,3-trifluoro-2-hydroxy-2-methyl-propyl]-13-oxa-18-thia-2,3,5,8-tetrazatetracyclo[8.8.0.02,6.011,17]octadeca-1(10),3,5,8,11(17)-pentaene-4-carboxamide] | 148% | 2.48
10 | C[C@@H]1N=C(c2c(F)cccc2F)c2c(sc3c2CCCCC3)-n2ccc(=O)nc21 [Example 7, (8S)-10-(2,6-difluorophenyl)-8-methyl-19-thia-2,6,9-triazatetracyclo[9.8.0.02,7.012,18]nonadeca-1(11),3,6,9,12(18)-pentaen-5-one] | 169% | 2.69
11 | Cc1cn2c(nc1=O)[C@H](C)N=C(c1c(F)cccc1F)c1c-2sc2c1CCCCC2 [Example 26, (8S)-10-(2,6-difluorophenyl)-4,8-dimethyl-19-thia-2,6,9-triazatetracyclo[9.8.0.02,7.012,18]nonadeca-1(11),3,6,9,12(18)-pentaen-5-one] | 109% | 2.09
12 | C[C@@H]1N=C(c2c(F)cccc2F)c2c(sc3c2COCCC3)-n2cc(C(=O)NCC3(O)CC3)nc21 [Example 68, (7S)-9-(2,6-difluorophenyl)-N-[(1-hydroxycyclopropyl)methyl]-7-methyl-13-oxa-18-thia-2,5,8-triazatetracyclo[8.8.0.02,6.011,17]octadeca-1(10),3,5,8,11(17)-pentaene-4-carboxamide] | 159% | 2.59
13 | C[C@@H]1N=C(c2c(F)cccc2F)c2c(sc3c2COCCO3)-n2nc(C(=O)N3CCC3)nc21 [Example 22, azetidin-1-yl-[(7S)-9-(2,6-difluorophenyl)-7-methyl-13,16-dioxa-18-thia-2,3,5,8-tetrazatetracyclo[8.8.0.02,6.011,17]octadeca-1(10),3,5,8,11(17)-pentaen-4-yl]methanone] | 88% | 1.88
14 | CCNC(=O)c1nc2n(n1)-c1sc3c(c1C(c1c(F)cccc1F)=N[C@H]2C)COCCO3 [Example 37, (7S)-9-(2,6-difluorophenyl)-N-ethyl-7-methyl-13,16-dioxa-18-thia-2,3,5,8-tetrazatetracyclo[8.8.0.02,6.011,17]octadeca-1(10),3,5,8,11(17)-pentaene-4-carboxamide] | 86% | 1.86
15 | Cc1nc2n(n1)-c1sc3c(c1C(c1c(F)cccc1F)=N[C@H]2C)COC[C@H](C)O3 [Example 39, (7S,15S)-9-(2,6-difluorophenyl)-4,7,15-trimethyl-13,16-dioxa-18-thia-2,3,5,8-tetrazatetracyclo[8.8.0.02,6.011,17]octadeca-1(10),3,5,8,11(17)-pentaene] | 150% | 2.50
16 | [2H]C1([2H])OCc2c(sc3c2C(c2c(F)cccc2F)=N[C@@H](C)c2nc(C(=O)N4CCC4)nn2-3)OC1([2H])[2H] [Example 23, azetidin-1-yl-[(7S)-14,14,15,15-tetradeuterio-9-(2,6-difluorophenyl)-7-methyl-13,16-dioxa-18-thia-2,3,5,8-tetrazatetracyclo[8.8.0.02,6.011,17]octadeca-1(10),3,5,8,11(17)-pentaen-4-yl]methanone] | 63% | 1.63
